Values joined by “and” are separate entries in the source; they are usually repeats but may differ in a detail not shown here. Identical values can stand only once. Like-named read-outs stand apart in the source and are kept apart here.
What was measured:
[1] = Solvent miscibility and compatibility with octyl cyanoacrylate; type: physicochemical; design: key: V = slightly viscous; VV = viscous; VVV = very viscous; Lyr = layers; Pl = pale; Lt = light; Y = yellow; RX = reacts; Gry = grey; Brn = brown; Blk = black; conditions: 3 ml solvent + 3 ml OCA
Procedure: (§1) Next, the solvents were tested for miscibility and compatibility with cyanoacrylate esters. Briefly, beginning with 3 ml samples each of butyl cyanoacrylate (BCA), octyl cyanoacrylate (OCA) and ethoxyethyl cyanoacrylate (EECA), 3 ml of each solvent was added drop-wise to each cyanoacrylate sample and agitated to aid mixing. Observations of the samples were taken immediately and then at regular intervals over 7 days. […] The remaining 10 solvents were ranked according to their compatibility with the cyanoacrylate esters based primarily on their compatibility with BCA over 7 days, secondarily on their compatibility with OCA, and finally on their miscibility with EECA.

[2] = Solvent compatibility with viscosity-increasing polymer, viscosity of solution: MMA; type: physicochemical; design: unit not given here; conditions: polymer added at 5% by weight, up to 3 days agitation
[3] = Solvent compatibility with viscosity-increasing polymer, viscosity of solution: CAB; type: physicochemical; design: unit not given here; conditions: polymer added at 5% by weight, up to 3 days agitation
[4] = relative volatility compared to butyl acetate; cited from earlier work
[5] = cited from earlier work
[6] = test system: rat; conditions: cited from earlier work
[7] = Solvent miscibility and compatibility with butyl cyanoacrylate; type: physicochemical; design: key: V = slightly viscous; VV = viscous; VVV = very viscous; Lyr = layers; Pl = pale; Lt = light; Y = yellow; RX = reacts; Gry = grey; Brn = brown; Blk = black; conditions: 3 ml solvent + 3 ml BCA
Procedure: as §1

[8] = Solvent miscibility and compatibility with ethoxyethyl cyanoacrylate; type: physicochemical; conditions: 3 ml solvent + 3 ml EECA
Procedure: as §1

[9] = Solvent miscibility and compatibility with cyanoacrylate esters (overall); type: physicochemical; conditions: observations over 7 days
Procedure: as §1

[10] = Solvent compatibility with viscosity-increasing polymer, viscosity of solution: VEE; type: physicochemical; design: unit not given here; conditions: polymer added at 5% by weight, up to 3 days agitation
[11] = Solvent compatibility with viscosity-increasing polymer, viscosity of solution: IB; type: physicochemical; conditions: for Dissolution of polyisobutylene: 5% by weight, up to 3 days; for Viscosity of solution with IB: polymer added at 5% by weight, up to 3 days agitation
[12] = Colorant solubility in solvent; conditions: for PPM dye soluble: 10 g solvent added to 0.4 g D&C Violet #2, shaken 30 minutes, stood 30 minutes; for Dye solubility, suitability: D&C Violet #2
Procedure: For the remaining solvents, colorant solubility was assessed in terms of the solubility of D&C Violet #2. Briefly, 10 g of each of the solvents listed in Table 5 was added to 0.4 g of dye in 12 ml test tubes. The samples were shaken for 30 minutes then allowed to stand for 30 minutes. After standing, 5 ml of the top layer was removed and weighed into pre-weighed aluminum weigh boats where the solvent was allowed to evaporate before re-weighing.

[13] = Solvent compatibility with viscosity-increasing polymer, viscosity of solution: Cap; type: physicochemical; conditions: polymer added at 5% by weight, up to 3 days agitation

C1COCCO1 [1,4 Dioxane]
OCA compatibility, 7 Day [1]: VVV
Viscosity of solution with MMA [2]: 17
Viscosity of solution with CAB [3]: 6.9
VL (volatility) [4]: 2.7
VP (vapor pressure) ([5]; at 20 ° C.): 27@20 mmHg

CCCCC(CC)CO (stereo not drawn) [2-ethyl hexanol]
VL (volatility) [4]: 0.01
TOX (toxicity, LD50) ([6]; rat, in vivo, po): 3730 mg/kg
VP (vapor pressure) ([5]; at 20 ° C.): 0.36@20^ mmHg

COCCOCCOC [2-methoxy ethyl ether]
VP (vapor pressure) ([5]; at 25 ° C.): 3@25 mmHg

CC(=O)C(C)C [3-Methyl 2-butanone]
BCA compatibility, 1 Day [7]: Gry
BCA compatibility, 2 Day [7]: Blk
BCA compatibility, 7 Day [7]: Blk
OCA compatibility, 1 Day [1]: VV
OCA compatibility, 2 Day [1]: VV
OCA compatibility, 7 Day [1]: VV
EECA compatibility, 1 Day [8]: LtBrn
EECA compatibility, 2 Day [8]: LtGry
EECA compatibility, 7 Day [8]: LtGry
Reaction with the cyanoacrylate esters [9]: apparent reactions
VL (volatility) [4]: 2.9
TOX (toxicity, LD50) ([6]; oral dose administered to rat): 3078 mg/kg
VP (vapor pressure) ([5]; at 20 ° C.): 42@20 mmHg

CC(C)=O [Acetone]
BCA compatibility, 2 Day [7]: V
BCA compatibility, 7 Day [7]: VV
Reaction with the cyanoacrylate esters [9]: apparent reactions
Viscosity of solution with MMA [2]: 2.4
Viscosity of solution with CAB [3]: 1.8
VL (volatility) [4]: 7.7
VP (vapor pressure) ([5]; at 39.5 ° C.): 400@39.5 mmHg

CCC(C)=O [Butanone]
OCA compatibility, 1 Day [1]: V
OCA compatibility, 2 Day [1]: VV
OCA compatibility, 7 Day [1]: VV
Viscosity of solution with MMA [2]: 4.5 and 4.2
Viscosity of solution with CAB [3]: 1.8
VL (volatility) [4]: 2.7
TOX (toxicity, LD50) ([6]; oral dose administered to rat): 2737 mg/kg
VP (vapor pressure) ([5]; at 60 ° C.): 400@60 mmHg

CCCCOCCO [Butoxyethanol]
VP (vapor pressure) ([5]; at 20 ° C.): 0.8@20 mmHg

CCCCOC(C)=O [Butyl acetate]
VL (volatility) [4]: 1
TOX (toxicity, LD50) ([6]; rat, in vivo, po): 10768 mg/kg

C1CCCCC1 [Cyclohexane]
OCA compatibility, 1 Day [1]: V
OCA compatibility, 2 Day [1]: VV
OCA compatibility, 7 Day [1]: VV
EECA compatibility, 1 Day [8]: 2Lyr
EECA compatibility, 2 Day [8]: 2Lyr
EECA compatibility, 7 Day [8]: 2Lyr
EECA compatibility, Time 0 [8]: 2Lyr
Viscosity of solution with VEE [10]: 4.5
Dissolution of polyisobutylene [11]: partially dissolve
Viscosity of solution with IB [11]: 59
PPM dye soluble [12]: 600 PPM
Dye solubility, suitability [12]: insufficient dye solubility
VL (volatility) [4]: 2.6
TOX (toxicity, LD50) ([6]; rat, in vivo, po): 12705 mg/kg
VP (vapor pressure) ([5]; at 20 ° C.): 95@20 mmHg

O=C1CCCCC1 [Cyclohexanone]
VL (volatility) [4]: 0.29
TOX (toxicity, LD50) ([6]; rat, in vivo, po): 1000 mg/kg
VP (vapor pressure) ([5]; at 25 ° C.): 5@25 mmHg

CC(=O)CC(C)(C)O [Diacetone alcohol]
VL (volatility) [4]: 0.14
TOX (toxicity, LD50) ([6]; oral dose administered to rat): 4000 mg/kg
VP (vapor pressure) ([5]; at 20 ° C.): 0.95@20^ mmHg

CC(Cl)CCl (stereo not drawn) [Dichloropropane]
VL (volatility) [4]: −1
TOX (toxicity, LD50) ([6]; oral dose administered to rat): 1947 mg/kg
VP (vapor pressure) ([5]; at 20 ° C.): 40@20 mmHg

CCOCC [Diethyl ether]
Viscosity of solution with VEE [10]: 1.2
VL (volatility) [4]: 37.5
VP (vapor pressure) ([5]; at 20 ° C.): 440@20 mmHg

OCCOCCO [Diethylene glycol]
VP (vapor pressure) ([5]; at 92 ° C.): 1@92 mmHg

CC(C)CC(=O)CC(C)C [Diisobutyl ketone]
TOX (toxicity, LD50) ([6]; rat, in vivo, po): 5750 mg/kg

CC(C)C(=O)C(C)C [Diisopropyl ketone]
VL (volatility) [4]: 0.17
TOX (toxicity, LD50) ([6]; rat, in vivo, po): 3536 mg/kg
VP (vapor pressure) ([5]; at 37 ° C.): 13.3@37^ mmHg

CCOCCOC(C)=O [Ethoxyethyl acetate]
VL (volatility) [4]: −1
TOX (toxicity, LD50) ([6]; rat, in vivo, po): 2700 mg/kg
VP (vapor pressure) ([5]; at 20 ° C.): 2@20 mmHg

CCOC(C)=O [Ethyl acetate]
OCA compatibility, 2 Day [1]: V?
OCA compatibility, 7 Day [1]: VV
Viscosity of solution with MMA [2]: 4.7
Viscosity of solution with CAB [3]: 2.3
PPM dye soluble [12]: 3400 PPM
VL (volatility) [4]: 6
TOX (toxicity, LD50) ([6]; oral dose administered to rat): 5620 mg/kg

CCCCCCC [Heptane]
BCA compatibility, 1 Day [7]: PlY
BCA compatibility, 2 Day [7]: LtY
BCA compatibility, 7 Day [7]: LtY
OCA compatibility, 2 Day [1]: VV
OCA compatibility, 7 Day [1]: VV
EECA compatibility, 1 Day [8]: 2Lyr
EECA compatibility, 2 Day [8]: 2Lyr
EECA compatibility, 7 Day [8]: 2Lyr
EECA compatibility, Time 0 [8]: 2Lyr
Viscosity of solution with VEE [10]: 1.5
Dissolution of polyisobutylene [11]: partially dissolve
Viscosity of solution with IB [11]: 11
VL (volatility) [4]: 4.3
TOX (toxicity, LD50) ([6]; rat, in vivo, po): 3200 mg/kg
VP (vapor pressure) ([5]; at 20 ° C.): 40@20 mmHg

CCCCCC [Hexane]
EECA compatibility, 1 Day [8]: 2Lyr
EECA compatibility, 2 Day [8]: 2Lyr
EECA compatibility, 7 Day [8]: 2Lyr
EECA compatibility, Time 0 [8]: 2Lyr
Viscosity of solution with VEE [10]: 0.9
Viscosity of solution with IB [11]: 7.7
PPM dye soluble [12]: 500 PPM
Dye solubility, suitability [12]: insufficient dye solubility
TOX (toxicity, LD50) ([6]; rat, in vivo, po): 28710 mg/kg
VP (vapor pressure) ([5]; at 20 ° C.): 132@20 mmHg

C=CC(=C)C [Isoprene]
BCA compatibility, Time 0 ([7]; time 0): RX
Reaction with the cyanoacrylate esters [9]: apparent reactions
VL (volatility) [4]: 28.6
TOX (toxicity, LD50) ([6]; rat, in vivo, po): 2100 mg/kg
VP (vapor pressure) ([5]; at 20 ° C.): 560@20 mmHg

COCCO [Methoxy ethanol]
VL (volatility) [4]: −1
TOX (toxicity, LD50) ([6]; oral dose administered to rat): 2370 mg/kg
VP (vapor pressure) ([5]; at 20 ° C.): 6.2@20 mmHg

COCC(C)O (stereo not drawn) [Methoxy propanol]
VL (volatility) [4]: 0.3
TOX (toxicity, LD50) ([6]; oral dose administered to rat): 8532 mg/kg

CC1CCCCC1 [Methyl cyclohexane]
VL (volatility) [4]: 2.99
TOX (toxicity, LD50) ([6]; oral dose administered to rat): 2250 mg/kg
VP (vapor pressure) ([5]; at 20 ° C.): 37@20 mmHg

CC(=O)CC(C)C [Methyl isobutyl ketone]
VL (volatility) [4]: 1.6
TOX (toxicity, LD50) ([6]; oral dose administered to rat): 1600 mg/kg
VP (vapor pressure) ([5]; at 20 ° C.): 16@20 mmHg

C[N+](=O)[O-] [Nitromethane]
VL (volatility) [4]: 1.39
VP (vapor pressure) ([5]; at 20 ° C.): 28@20 mmHg

CCCOCC(C)O (stereo not drawn) [PGPE (Arcosolv)]
VL (volatility) [4]: 0.21
VP (vapor pressure) ([5]; at 20 ° C.): 1.7@20 mmHg

CCCOC(C)=O [Propyl acetate]
VL (volatility) [4]: 3.0
TOX (toxicity, LD50) ([6]; rat, in vivo, po): 6640 mg/kg
VP (vapor pressure) ([5]; at 20 ° C.): 25@20 mmHg

C1CCOC1 [THF, tetrahydrofuran]
OCA compatibility, 1 Day [1]: VV
OCA compatibility, 2 Day [1]: VV
OCA compatibility, 7 Day [1]: VV
Viscosity of solution with MMA [2]: 5.3
Viscosity of solution with CAB [3]: 3.1
VL (volatility) [4]: 8
VP (vapor pressure) ([5]; at 20 ° C.): 129@20 mmHg

Cc1ccccc1 [Toluene]
Viscosity of solution with Cap [13]: 3.7
Viscosity of solution with VEE [10]: 3.1
Viscosity of solution with IB [11]: 20
VL (volatility) [4]: 2.24
VP (vapor pressure) ([5]; at 20 ° C.): 22@20 mmHg

CC(=O)OC(C)(C)C [t-Butyl acetate]
VL (volatility) [4]: 1.5
TOX (toxicity, LD50) ([6]; oral dose administered to rat): 13400 mg/kg

CC(=O)OC(C)C [t-propyl acetate]
PPM dye soluble [12]: 2200 PPM
TOX (toxicity, LD50) ([6]; oral dose administered to rat): 6750 mg/kg
VP (vapor pressure) ([5]; at 25 ° C.): 59@25 mmHg

Methyl cyclohexanone
VL (volatility) [4]: 0.29
TOX (toxicity, LD50) ([6]; oral dose administered to rat): 2140 mg/kg
VP (vapor pressure) ([5]; at 20 ° C.): 3.3@20 mmHg

Xylene
VL (volatility) [4]: 0.7
TOX (toxicity, LD50) ([6]; oral dose administered to rat): 3910 mg/kg
VP (vapor pressure) ([5]; at 20 ° C.): 9@20 mmHg
